From US11440935B2, “3″,5″-dimethoxybenzoyl-3′-amino-3′-deoxy adenosine-5′-triphosphates and pharmaceutical uses thereof” (Danmir Therapeutics, LLC, priority 2018, dated 2022)

Tested on: conscious guinea-pigs
Assay: Aerosolized ATP-induced bronchoconstriction in conscious guinea-pigs (sRaw)
Assay type: in vivo, guinea-pig
Conditions: n=6
Method: This study was performed in 6 guinea-pigs. The housing room was constantly ventilated, and the temperature kept at ˜23° C. After quarantine, the animals were individually placed in a whole-body, unrestrained, plethysmograph chamber (model PLY3215, Buxco Electronics Inc., Troy, N.Y.) for ˜40 min once a day for two continuous days before the cough test. All GPs were weighed before the cough study.
ATP was purchased from Sigma-Aldrich (Cat #A2383-10G). Solutions of ATP used for aerosol challenge were freshly made just prior to use by dissolving the powder in 0.9% saline (NaCl) solution. Solutions of DT-0111 used for aerosol administration were freshly made by dissolving the powder in 0.9% saline (NaCl) solution.
A plethysmograph chamber was continuously flushed with normoxic (21% O2 and 79% N2) room air at 2 L/min. The same amount of air was drawn through the chamber base outlets using a Buxco bias flow regulator to keep the chamber bias flow balanced. ATP or DT solution was aerosolized by using a vibrating mesh nebulizer (Ireland Ltd., Galway Ireland, AG-AL1100). The output rate of delivered aerosol was around 0.5 ml/min with droplet size (volume median diameter) at 2.5-4.0 μm (manufacture's indications). […]
The results are expressed as percent change in airway pressure (sRaw). n=6; * p<0.05, vs. ATP 0.0 mg/ml; †p<0.05, DT-0111 vs. Ctrl at the same ATP dose.

## Sodium 3′-N-(3,5-dimethoxybenzoyl)-3′-deoxy-β-D-adenosine 5′-triphosphate [DT-0111]
  effect on aerosolized ATP-induced bronchoconstriction: Suppresses
